The target of this assay is Kelch-like ECH-associated protein 1 (Homo sapiens) (UniProt Q14145). As to the kind of experiment: Keap1-Nrf2 protein-protein interaction inhibitors, dose response, biochemical, fluorescence polarization, dry powder, set 2 (AID 651801). The conditions noted are these: Keap1 Kelch/FITC-Nrf2 peptide fluorescence polarization; at 50 µM (top of the series).

Consider six molecules from PubChem BioAssay AID651801 (Broad Institute, 2012).

SMILES strings stand for the structures. Calls of active or inactive are those of the source.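 The calls were made as follows: active = signal falling with dose and AC50 at most twice the top valid tested dose; inconclusive = flat fit with inhibition of 30 to 70%, or poor fit; inactive = the rest, plus effects in the rising direction.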

Kelch-like ECH-associated protein 1 (Homo sapiens), sequence (Q14145 whole entry, looked up): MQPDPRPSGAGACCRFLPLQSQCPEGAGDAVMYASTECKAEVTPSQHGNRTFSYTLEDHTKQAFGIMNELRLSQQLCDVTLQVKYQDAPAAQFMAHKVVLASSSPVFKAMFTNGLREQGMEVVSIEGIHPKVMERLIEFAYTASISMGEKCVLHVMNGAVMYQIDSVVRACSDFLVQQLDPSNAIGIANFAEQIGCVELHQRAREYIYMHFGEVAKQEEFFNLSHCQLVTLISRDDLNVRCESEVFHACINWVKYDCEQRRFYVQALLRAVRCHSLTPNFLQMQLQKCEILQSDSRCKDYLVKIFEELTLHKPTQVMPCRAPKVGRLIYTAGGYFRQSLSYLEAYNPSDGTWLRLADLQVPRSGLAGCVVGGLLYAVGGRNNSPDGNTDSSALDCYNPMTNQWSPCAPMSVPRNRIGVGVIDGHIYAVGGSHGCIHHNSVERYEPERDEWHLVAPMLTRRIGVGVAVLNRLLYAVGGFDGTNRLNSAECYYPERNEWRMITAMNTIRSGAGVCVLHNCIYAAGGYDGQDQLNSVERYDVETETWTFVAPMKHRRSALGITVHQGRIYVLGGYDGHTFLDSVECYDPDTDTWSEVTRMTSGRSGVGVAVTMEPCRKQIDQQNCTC

For `O=C(NC[C@@H]1c2ccccc2CCN1C(=O)[C@@H]1CCCC[C@@H]1C(=O)O)c1ccc(CCl)cc1`, the “activity change, negative = inhibition” value is “inactive”.
In the case of `O=C(NCCCN1CCOCC1)c1ccccc1C(=O)NC[C@@H]1c2ccccc2CCN1C(=O)C1CCCCC1C(=O)O` (stereo partly specified) it was “inactive”.
For `Cc1cc(C)c(S(=O)(=O)Nc2nc(C(C(=O)OC(C)C)C(=O)C(F)(F)F)nc3ccccc23)c(C)c1` (stereo unspecified) the value was “inactive”; for `CCOC(=O)C(C(=O)OCC)c1cc(CNS(=O)(=O)c2ccc(C)cc2C)c2ccccc2n1`, “inactive”; for `O=C(O)C1CCCCC1C(=O)NCC1c2ccccc2CCN1C(=O)Cc1ccccc1` (stereo unspecified), “inactive”.
With `Cc1cc(C)c(S(=O)(=O)Nc2nc(NCCO)nc3ccccc23)c(C)c1`, the “activity change, negative = inhibition” value was “inactive”.
